How the values were obtained:
A549 cells [1] = assay: Changes in the intracellular cGMP level in response to natriuretic peptide stimulus, A549 cells; type: cell-based, human; settings: 1×10^−11 M to 1×10^−6 M, 10 minutes, FIG. 1A
Description: Lung adenocarcinoma cell line, A549 cells, was obtained from ATCC (Manassas, Va.). The cells were cultured in DMEM culture medium (Invitrogen, Carlsbad, Va.) containing 10% FCS under 5% CO2 at 37° C. The amounts of the culture medium were 1.5 mL for each well of a 6-well dish, 400 μL for each well of a 24-well dish, and 150 μL for each well of a 96-well dish. In the Examples below, unless otherwise stated, the same culture medium and culture conditions were adopted.
(§1) The A549 cells were cultured in a 24-well dish at 4×10^4 cells/well, and the culture medium was replaced with DMEM culture medium free from FCS the next day. The CAFs were cultured in a 24-well dish at 1×10^4 cells/well, and the culture medium was replaced with DMEM culture medium containing 1% FCS the next day.
(§2) To these culture media, solutions of hANP, hBNP, and hCNP-22 (final concentration: ten-fold serial dilution from 1×10^−11 M to 1×10^−6 M, the same amount of physiological saline was used as a control) were separately added. After 10 minutes had passed, 400 μL of cooled 70% ethanol (containing 0.1 N hydrochloric acid) was added, and ultrasonication was performed for a short time. The treated solution was lyophilized, and the cGMP level was measured using Cyclic GMP Assay kit (made by Yamasa Corp.).

A549 cells and CAFs = assay: Mouse models having transplanted cancer cells and CAFs, administration started after tumor tissue was established (Example 6); type: in vivo; settings: hANP alone 0.5 μg/kg/min, started 2 weeks after transplantation, 4 weeks, FIG. 10
Description: In this Example and Example 6, 5-week-old male immunodeficient mice (KSN mice, Japan SLC, Inc.) were used. The osmotic pumps used were MODEL2004 (for 28-day administration) made by ALZET (Cupertino, Calif.). A mixed suspension of the A549 cells and the CAFs was prepared using DMEM free from FBS so as to contain the A549 cells at 1×10^6 cells/100 μL and the CAFs at 0.5×10^6 cells/100 μL. The mixed suspension in an amount of 100 μL per mouse was subcutaneously injected in the back of the immunodeficient mice. […] After 2 weeks of observation from the injection of the cell suspension, the mice to which the mixed suspension had been injected were randomly divided into 4 groups (control group, ANP group, CNP group, and ANP+CNP group), and an osmotic pump appropriately adjusted for each group as shown below was subcutaneously implanted to start administration. • Control group and A549 group: physiological saline was administered • ANP group: hANP was administered at 0.5 μg/kg/min • CNP group: hCNP-22 was administered at 2.5 μg/kg/min • ANP+CNP group: hANP was administered at 0.5 μg/kg/min and hCNP-22 was administered at 2.5 μg/kg/min Observation was further continued for 4 weeks after the start of administration, the tumor size at the cell injection site was measured weekly, and tumor volume was calculated in the same way as in Example 5 (FIG. 10).

[2] = tested on: cancer-associated fibroblasts (CAFs); assay: Changes in the intracellular cGMP level in response to natriuretic peptide stimulus, CAFs; type: cell-based, human; settings: 1×10^−11 M to 1×10^−6 M, 10 minutes, FIG. 1B
Description: For obtaining CAFs (cancer-associated fibroblasts), tissue harvested from a patient having lung cancer surgery was subjected to primary culture after the consent of the patient was obtained. The cells were then cultured in DMEM culture medium containing 10% FCS under 5% CO2 at 37° C., and the cells of the 5th and earlier passages were used.
as §1, §2

tumor cells = settings: reports by Vesely et al.; cited from earlier work
CAFs = assay: Production of cancer exacerbation factors by CAFs under TGF-β1 stimulus (quantitative RT-PCR); type: cell-based, human; settings: test substance 1 μM, TGF-β1 0.125-2.0 ng/mL, 24 hours, mRNA level, FIG. 5
Description: Using a 6-well dish, the CAFs were cultured at 5×10^4 cells/well, and the culture medium was replaced with DMEM culture medium containing 1% FBS the next day. After 24 hours of culture, the cells were used in the following experiment.
A CNP group (a hCNP-22 solution was added (final concentration: 1 μM)) and a control group (the same amount of physiological saline was added) were prepared, and after 2 hours from the addition (of the hCNP-22 solution or the physiological saline) to the CAFs, TGF-β1 was added so that the final concentration would be 0.125, 0.25, 0.5, 1.0, and 2.0 ng/mL. After 24 hours had passed, total RNA was recovered using TRIZOL total RNA isolation reagent, cDNA was synthesized using reverse transcriptase, and the mRNA levels of VEGF-A, TGF-β1, TNF-α, and IL-6 were measured by quantitative RT-PCR.

A549 cells [3] = assay: EMT induced by TGF-β1 in A549 cells (morphology, quantitative RT-PCR); type: cell-based, human
Description: Using a 6-well dish, the A549 cells were cultured at 1×10^5 cells/well, and the culture medium was replaced with DMEM culture medium free from FBS the next day. After 24 hours of culture, the cells were used in the following experiment.
An ANP group (a hANP solution was added (final concentration: 1 μM)) and a control group (the same amount of physiological saline was added) were prepared, and after 2 hours from the addition (of the hANP solution or the physiological saline) to the A549 cells, TGF-β1 was added so that the final concentration would be 0.125, 0.25, 0.5, 1.0, and 2.0 ng/mL. After 24 hours had passed, the morphological change in the cells was observed under a microscope and photographed (FIG. 2).
Then, total RNA was recovered from the above prepared ANP group and control group using TRIZOL total RNA isolation reagent (made by Invitrogen), cDNA was synthesized using reverse transcriptase, and the mRNA levels of E-cadherin, N-cadherin, VEGF-A, PDGF-B, TNF-α, and IL-6 were measured by quantitative RT-PCR. The mRNA level of each intended gene was calculated as the relative ratio of the mRNA amount of the gene to that of the housekeeping gene 36B4 measured at the same time. In the Examples below, unless otherwise stated, the mRNA levels were obtained through the same calculation.
It is known that in EMT, the expression of E-cadherin decreases while the expression of N-cadherin increases. The expression ratio of the two kinds of cadherin (N-cad/E-cad) is considered to be useful as an indicator of the degree of EMT.

[4] = A549 cells, test substance 1 μM, mRNA level, FIG. 3

CC[C@H](C)[C@@H]1NC(=O)[C@H](CCCNC(=N)N)NC(=O)[C@H](CC(=O)O)NC(=O)[C@H](CCSC)NC(=O)[C@H](CCCNC(=N)N)NC(=O)CNC(=O)CNC(=O)[C@H](Cc2ccccc2)NC(=O)[C@@H](NC(=O)[C@H](CO)NC(=O)[C@H](CO)NC(=O)[C@H](CCCNC(=N)N)NC(=O)[C@H](CCCNC(=N)N)NC(=O)[C@H](CC(C)C)NC(=O)[C@@H](N)CO)CSSC[C@@H](C(=O)N[C@@H](CC(N)=O)C(=O)N[C@@H](CO)C(=O)N[C@@H](Cc2ccccc2)C(=O)N[C@@H](CCCNC(=N)N)C(=O)N[C@@H](Cc2ccc(O)cc2)C(=O)O)NC(=O)CNC(=O)[C@H](CC(C)C)NC(=O)CNC(=O)[C@H](CO)NC(=O)[C@H](CCC(N)=O)NC(=O)[C@H](C)NC(=O)CNC1=O [hANP]
intracellular cGMP level of the A549 cells (A549 cells [1]): increased the intracellular cGMP level of the A549 cells in a concentration-dependent manner
tumor growth as compared with the control group (A549 cells and CAFs): showed an effect of tumor growth suppression
cGMP level of the CAFs [2]: did not show such an action
growth-suppressing activity on tumor (cancer) cells (tumor cells): growth-suppressing effect
gene expression of the growth factors (VEGF-A, TGF-β1) and the inflammatory cytokines (TNF-α, IL-6) increased by the TGF-β1 stimulus in CAFs (CAFs): did not show any effect on CAFs
expression ratio of N-cad/E-cad (indicator of EMT) (A549 cells [3]; A549 cells, 1 μM hANP, TGF-β1 stimulus, FIG. 4): significantly decreased
morphological change in the cells associated with EMT induced by the TGF-β1 stimulus (A549 cells [3]; A549 cells, test substance 1 μM, 24 hours after TGF-β1, FIG. 2): significantly suppressed
gene expression of the growth factors (VEGF-A, PDGF-B) and the inflammatory cytokines (TNF-α, IL-6) increased by EMT induced by the TGF-β1 stimulus (A549 cells [3]; A549 cells, test substance 1 μM, TGF-β1 0.125-2.0 ng/mL, 24 hours, mRNA level, FIG. 3): significantly suppressed
decrease in the expression of E-cadherin induced by the TGF-β1 stimulus (A549 cells [3]; [4]): inhibited decrease
increase in the expression of N-cadherin induced by the TGF-β1 stimulus (A549 cells [3]; [4]): significantly suppressed increase
effect of suppressing EMT (A549 cells [3]; concentration of 1 μM, summary of Example 2): significantly suppressing EMT

From patent US9233143B2, “Medicinal agent for preventing exacerbation of malignant tumor, comprising combination of natriuretic peptide receptor GC-A and GC-B agonists” (National Cerebral and Cardiovascular Center, priority 2011, dated 2016)
